Measured values as given in patent US20260263616A1, “NOVEL HE[…] USE THEREOF” (PINOTBIO, INC., priority 2023, published 2026).
Square brackets hold non-standard residues; d marks the D form. Peptide text beside a SMILES is read from it. * marks the point of attachment. Dolaproine = CO[C@@H]([C@@H]1CCCN1)[C@@H](C)C(=O)O; Dil = CC[C@H](C)[C@H](NC)[C@@H](CC(=O)O)OC; X1 = C[C@@H](N*)[C@@H](O)c1ccccc1; NMeV = CN[C@H](C(=O)O)C(C)C

Tests used:
[1] = test system: head and neck squamous cell carcinoma cell line (FaDu); experiment: Cell viability assay (CellTiter-Glo), FaDu; type: cell-based; details: for IC50: FaDu cells, 3 days incubation, CellTiter-Glo luminescence, 50% of untreated control
Description: (§1) FaDu or A549 cell lines were seeded into 96-well plates at a density of 3,000 cells per well and incubated at 37° C., 5% CO2. After 24 hours, 100 μL of drug at 9 concentrations (from 1000 nM, serially diluted 1/5) was added to the cell line. As the drugs, the compound of Chemical Formula 2 prepared according to Example 1, SC209 (MedChemExpress), and MMAE were treated, and at this time, a control group (drug concentration 0) without drug treatment was also prepared. After incubation under incubator conditions (37° C., 5% CO2) for 3 days, 100 µL of
(§2) CellTiter-Glo reagent (using CellTiter-Glo® Luminescent Cell Viability Assay kit (Promega, G7571)) was added to each well of the plate, followed by pipetting. After incubation for 10 minutes (RT), luminescence was measured, and when the luminescence value at drug concentration 0 is regarded as 100%, the concentration showing 50% luminescence value is the IC50 value.

[2] = test system: lung cancer cell line (A549); experiment: Cell viability assay (CellTiter-Glo), A549; type: cell-based; details: for IC50: A549 cells, 3 days incubation, CellTiter-Glo luminescence, 50% of untreated control
Description: as §1, §2

**Q.** For `CN[C@H](C(=O)N[C@H](C(=O)N(C)[C@H](/C=C(\C)C(=O)O)C(C)C)C(C)(C)C)C(C)(C)c1ccc(OC)c(N)c1` [Compound of Chemical Formula 2], which “cell viability compared with SC209 and MMAE” value ([1]; FaDu cell line, 3 days treatment) is on record?
**A.** The value was “decreased to a level similar to that observed with SC209 and MMAE treatment”.

**Q.** What about the IC50 ([1]; Homo sapiens, 72 h) of the same compound?
**A.** Its IC50 is 6.17 nM.

**Q.** What about the IC50 ([2]; Homo sapiens, 72 h) of the same compound?
**A.** The IC50 was 22.6 nM.

**Q.** And the “cell viability compared with SC209 and MMAE” value ([2]; lung cancer cell line (printed A529), 3 days treatment)?
**A.** Its value is “decreased to a level similar to that observed with SC209 and MMAE treatment”.

**Q.** What does the source list for `CC[C@H](C)[C@@H]([C@@H](CC(=O)N1CCC[C@H]1[C@H](OC)[C@@H](C)C(=O)N[C@H](C)[C@@H](O)c1ccccc1)OC)N(C)C(=O)[C@@H](NC(=O)[C@@H](NC)C(C)C)C(C)C` [MMAE, reference compound] (H-[NMeV]V[Dil][Dolaproine]-X1)?
**A.** IC50 [1]: 1.57 nM; IC50 [2]: 3.72 nM
